We go through one compound from patent publication US20230104487A1, “11-(4-CHLOROPHENYL)-4-(2,3-DIHYDRO-1H-INDOLE-1-CARBONYL)-3,11-DIMETHYL-5,10,DIOXATRICYCLO[7.4.0.0,2,6,]TRIDECA-1,3,6,8-TETRAEN-13-ONE AND DERIVATIVES AS DESTABILIZER OF CRY1 FOR THE TREATMENT OF CIRCADIAN RHYTHM ASSOCIATED DISEASES AND DISORDERS” (KOC UNIVERSITESI, priority 2019, published 2023).

Entries after “also recorded” stand apart in the source; their conditions may differ.

Assay [1] concerns the target T1, CRY1 (Homo sapiens, UniProt Q16526).
T1 construct: To evaluate the effect of FORMULA I on the endogenous protein and mRNA level of clock genes; endogenous in cells; host or cells: U2-OS
T1 sequence (Q16526 1-586): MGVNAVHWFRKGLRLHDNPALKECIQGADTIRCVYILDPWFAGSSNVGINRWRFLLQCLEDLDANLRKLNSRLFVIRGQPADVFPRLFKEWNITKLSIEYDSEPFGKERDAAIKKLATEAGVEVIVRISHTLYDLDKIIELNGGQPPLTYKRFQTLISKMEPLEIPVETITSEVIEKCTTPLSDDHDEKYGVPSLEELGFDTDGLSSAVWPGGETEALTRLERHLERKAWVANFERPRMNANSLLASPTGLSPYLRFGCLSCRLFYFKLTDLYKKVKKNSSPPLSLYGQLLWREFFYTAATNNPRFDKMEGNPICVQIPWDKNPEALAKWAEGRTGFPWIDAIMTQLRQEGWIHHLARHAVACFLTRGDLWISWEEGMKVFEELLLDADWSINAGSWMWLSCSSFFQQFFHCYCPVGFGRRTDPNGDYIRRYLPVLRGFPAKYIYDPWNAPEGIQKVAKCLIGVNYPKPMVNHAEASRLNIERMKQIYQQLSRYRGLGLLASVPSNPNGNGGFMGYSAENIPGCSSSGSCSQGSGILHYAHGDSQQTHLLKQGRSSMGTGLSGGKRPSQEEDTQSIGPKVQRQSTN
Briefly: Protein immunoblot, synchronized U2-OS cells, CRY1. The class given is cell-based. The conditions noted are these: 10 μM, 80-92 h. The protocol: (§1) FIGS. 3A-3G are an illustration of FORMULA I decreased CRY1 level in synchronized U2-OS cells. Confluent U2-OS cells were synchronized by 2 h treatment with dexamethasone ([…]) and medium replaced with fresh medium containing FORMULA I or solvent (DMSO final 0.5%). Cells were harvested at indicated time points. FIGS. 3A-3B show lysed cells were analyzed via protein immunoblot technique. […] CRY levels in DMSO control divided by that of in FORMULA I treated samples were reported (mean±SEM, n=4). FIGS. 3C-3G show cells were subjected to reverse-transcription-quantitative polymerase chain reaction (RT-qPCR). […] Expression level of genes was normalized according to the expression level of that gene at 72ndh. (Data represent the mean±SEM, n=3 with duplicates ***: p<0.001 **: p<0.005, *: p<0.05 versus DMSO control by two-way ANOVA).
(§2) Cells were lysed in RIPA buffer (50 mM Tris, 150 mM NaCl, 1% Triton-X, 0.1% SDS) with fresh Protease inhibitor cocktail (PIC). After centrifugation at 13000 rpm for 15 minutes at 4° C., supernatant was used to determine the protein amount using Pierce Protein Assay (Thermo Scientific) according to the manufacturer's instruction. Mice liver samples were homogenized and lysed with Dounce homogenizer and RIPA buffer. […] ECL buffer system (Advansta WesternBright) was used to visualize HRP chemi-luminescence via BioRad ChemiDoc Touch visualizer. […]
Background: A western blot detects proteins with antibodies after separation by electrophoresis.

Assay [2] relates to CRY2. Briefly: Protein immunoblot, synchronized U2-OS cells, CRY2. The class given is cell-based, human. The note with it: 10 μM, 80-92 h. The protocol: as §1, §2
Assay [3] concerns NIH 3T3 Per2-dLuc cells. Briefly: Real-time monitoring of circadian rhythm, NIH 3T3 Per2-dLuc. Format: cell-based. The note with it: dose dependent. The protocol:
Luminescence values were recorded at 32° C. for each 30 minutes with 15 seconds integration time via Synergy H1 luminometer for a week. For LumiCycle, 400×10^3 U2-OS Bmal1-dLuc or NIH3T3 mPer2-dLuc cells were seeded to 35 mm plates and then procedure given above was followed with a change in the last step. Plates were sealed with vacuum grease and placed to LumiCycle. Each plate was recorded continuously every 10 minutes for 70 seconds at 37° C. via photomultiplier tubes. Period and amplitude data were obtained from LumiCycle Analysis software. To detect the effect of FORMULA I in the absence of CRYs, Cry1^−/−/Cry2^−/− mouse embryonic fibroblasts (CRYDKO MEFs) transiently transfected with pGL3-Per2-Luc (luciferase reporter) were used. 3×10^5 CRYDKO cells were seeded in 35 mm clear plates. Next day, cells were transfected with 4000 ng pGL3-Per2-Luc via Fugene6 transfection reagent according to the manufacturer's instruction. In short, 3:1 ratio of Fugene6 in μl against transfected DNA amount in μg was kept in transfections. 72 h after transfection cells were synchronized with DXM for two hours. Then, medium was changed with lumicycle medium having DMSO or molecule, sealed with vacuum grease, and placed to LumiCycle.

In the case of `Cc1c(C(=O)N2CCc3ccccc32)oc2ccc3c(c12)C(=O)CC(C)(c1ccc(Cl)cc1)O3` (stereo not drawn) [FORMULA I, 11-(4-chlorophenyl)-4-(2,3-dihydro-1H-indole-1-carbonyl)-3,11-dimethyl-5,10,dioxatricyclo[7.4.0.0,2,6,]trideca-1,3,6,8-tetraen-13-one], in assay [1], the CRY1 protein level result is given as “decreased the protein level of CRY1”. The CRY2 protein level entry in assay [2] is “increased CRY2 levels; also recorded: increased the level of CRY2”. Besides, in assay [3], the “effect on circadian rhythm” value is on record as “exhibited similar phenotype”.
